The record followed here is US20190002436A1, “RESPIRATORY SYNCYTIAL VIRUS INHIBITORS” (MEDIVIR AB, priority 2015, published 2019).

One assay concerns RSV (Long). Kind of assay: RSV cytopathic effect (CPE)-based viral replication assay. Format: cell-based, respiratory syncytial virus (RSV). Particulars: HEp-2 cells infected with RSV Long at MOI 0.015; 3 days at 37° C.; cell viability by CellTiter-Glo luminescence; read-out: EC50 (nm). The method, then:
Example A: RSV Cytopathic Effect
Compounds of the invention are initially tested in a cytopathic effect (CPE)-based viral replication assay using immortalized cells and a laboratory strain of RSV (Long). This assay evaluates the ability of a compound to inhibit viral replication.
Assay plates are prepared by seeding 2,500 HEp-2 cells (ATCC) per well of a 384-well black clear-bottom plate (Greiner Bio-One) in 20 μL of assay media (defined as DMEM supplemented with 2% heat-inactivated fetal bovine serum and 1% Penicillin/Streptomycin). Assay plates are incubated overnight at 37° C. in an incubator containing 5% CO2. The following day, a 10-point serial dilution of test compound is prepared in DMSO. Compounds are subsequently diluted with assay media and 20 μL of diluted compound (containing 1.5% DMSO) is transferred to an assay plate for evaluation of antiviral activity.
For the CPE assay, cells are infected at a Multiplicity of Infection (MOI) of 0.015 using 20 μL of RSV Long (ATCC) diluted in assay media. The DMSO concentration is constant throughout the assay plate, including the negative and positive controls. The assay plate is incubated for 3 days at 37° C. in an incubator containing 5% CO2. Cell viability is evaluated with the addition of 10 μL of CellTiter-Glo (ProMega). Luminescence is measured using an EnVision plate reader (Perkin Elmer). EC50 values are calculated using the raw data from the CPE assays.
A general note: Cytopathic effects are the visible damage that an infection or toxin causes in cultured cells.
The term EC50 denotes the concentration at which the effect is half-maximal. For `O=C1N(Cc2ncc3ccccc3c2-c2ccc(F)nc2)c2ccccc2C12CC(NCCF)C2` (single isomer, unassigned) [Example 87-1, 3-((2-fluoroethyl)amino)-1′-((4-(6-fluoropyridin-3-yl)isoquinolin-3-yl)methyl)spiro[cyclobutane-1,3′-indolin]-2′-one], the EC50 worked out at 21 nM. With `CS(=O)(=O)N1CCC2(CC1)C(=O)N(Cc1ncc3ccccc3c1C1CNC(=O)C1)c1cnccc12` (stereo not shown) [Example 2018], the EC50 came to 50 nM. As for `O=C1CC(c2c(Cn3c(=O)n(C4CC4)c4ccncc43)ncc3ccccc23)CN1` (stereo not shown) [Example 2019], the EC50 came out at 15 nM.

The assay is the same for the next values; noted with them: human respiratory syncytial virus, HEp-2, 72 h, HEp-2 cells infected with RSV Long at MOI 0.015; 3 days at 37° C.; cell viability by CellTiter-Glo luminescence; read-out: EC50 (nm).
For `O=c1n(Cc2ncc3ccccc3c2CCCCO)c2cnccc2n1C1CN(S(=O)(=O)C2CC2)C1` [Example 34, 1-(1-(cyclopropylsulfonyl)azetidin-3-yl)-3-((4-(4-hydroxybutyl)isoquinolin-3-yl)methyl)-1H-imidazo[4,5-c]pyridin-2(3H)-one], the concentration for a half-maximal effect (EC50) was 33 nM. As for `CS(=O)(=O)N1CC2(C1)C(=O)N(Cc1ncc3ccccc3c1CCCCO)c1ccccc12` [Example 42, 1′-((4-(4-Hydroxybutyl)isoquinolin-3-yl)methyl)-1-(methylsulfonyl)spiro[azetidine-3,3′-indolin]-2′-one], the 50% effective concentration (EC50) stood at 4.6 nM. Consider `CS(=O)(=O)N1CC2(C1)C(=O)N(Cc1ncc3ccccc3c1-c1ccc(F)nc1)c1ccccc12` [Example 78], for which the concentration for a half-maximal effect (EC50) was found to be 0.9 nM. Still for that read-out and setting: then `NC1(C(=O)N2CCC3(CC2)C(=O)N(Cc2ncc4ccccc4c2-c2cncc(F)c2)c2cnccc23)CC1` [Example 106c, 1-(1-aminocyclopropanecarbonyl)-1′-((4-(5-fluoropyridin-3-yl)isoquinolin-3-yl)methyl)spiro[piperidine-4,3′-pyrrolo[2,3-c]pyridin]-2′(1′H)-one], with 3.7 nM. Turning to `O=C(N1CCC2(CC1)C(=O)N(Cc1ncc3ccccc3c1-c1cccnc1)c1cnccc12)C(F)(F)F` [Example 129b, 1′-((4-(Pyridin-3-yl)isoquinolin-3-yl)methyl)-1-(2,2,2-trifluoroacetyl)spiro[piperidine-4,3′-pyrrolo[2,3-c]pyridin]-2′(1′H)-one], the half-maximal effective concentration (EC50) turned out to be 5.2 nM. Take `O=c1n(Cc2ncc3cccc(F)c3c2CCCCO)c2cnccc2n1C1CC1` [Example 31, 1-Cyclopropyl-3-((5-fluoro-4-(4-hydroxybutyl)isoquinolin-3-yl)methyl)-1H-imidazo[4,5-c]pyridin-2(3H)-one]: the EC50 was 140 nM. On the same count and under the same terms, then `COC(=O)N1CCC2(CC1)C(=O)N(Cc1ncc3cc(Cl)ccc3c1-c1cccnc1)c1cnccc12` [Example 164, Methyl 1′-((7-chloro-4-(pyridin-3-yl)isoquinolin-3-yl)methyl)-2′-oxo-1′,2′-dihydrospiro[piperidine-4,3′-pyrrolo[2,3-c]pyridine]-1-carboxylate], with 1.6 nM; and `NC1(C(=O)N2CCC3(CC2)C(=O)N(Cc2ncc4ccccc4c2CCCCO)c2cnccc23)CC1` [Example 39b, 1-(1-Aminocyclopropanecarbonyl)-1′-((4-(4-hydroxybutyl)isoquinolin-3-yl)methyl)spiro[piperidine-4,3′-pyrrolo[2,3-c]pyridin]-2′(1′H)-one], with 35 nM. With `CS(=O)(=O)N(c1ccc(-c2c(CN3C(=O)C4(CCN(C(=O)C5(C(F)(F)F)CC5)CC4)c4ccncc43)ncc3ccccc23)cn1)S(C)(=O)=O` [Example 166d, N-(methylsulfonyl)-N-(5-(3-((2′-oxo-1-(1-(trifluoromethyl)cyclopropanecarbonyl)spiro[piperidine-4,3′-pyrrolo[2,3-c]pyridin]-1′(2′H)-yl)methyl)isoquinolin-4-yl)pyridin-2-yl)methanesulfonamide], the EC50 was determined as 2.5 nM. For `CC1(n2c(=O)n(Cc3ncc4ccccc4c3-c3ccc(C4(N)CC4)nc3)c3cnccc32)CC1` [Example 2001], the concentration giving a half-maximal response (EC50) was 9.5 nM.

Turning to `CS(=O)(=O)N1CCC2(CC1)C(=O)N(Cc1ncc3cc(F)ccc3c1-c1cncs1)c1cnccc12` [Example 2010], the EC50 was determined as 1.5 nM. For `O=c1n(Cc2ncc3ccccc3c2-c2cccc(CO)c2)c2cnccc2n1C1CC1` [Example 10, 1-Cyclopropyl-3-((4-(3-(hydroxymethyl)phenyl)isoquinolin-3-yl)methyl)-1H-imidazo[4,5-c]pyridin-2(3H)-one], the EC50 was 240 nM. Consider `COC(=O)N1CC2(C1)C(=O)N(Cc1ncc3ccccc3c1-c1cccnc1)c1ccccc12` [Example 92b, Methyl 2′-oxo-1′-((4-(pyridin-3-yl)isoquinolin-3-yl)methyl)spiro[azetidine-3,3′-indoline]-1-carboxylate], for which the EC50 was determined as 0.67 nM. On to `COC(=O)c1ccc(-c2c(CN3C(=O)C4(CCN(C(=O)C5(N)CC5)CC4)c4ccncc43)ncc3ccccc23)cn1` [Example 50c, Methyl 5-(3-((1-(1-aminocyclopropanecarbonyl)-2′-oxospiro[piperidine-4,3′-pyrrolo[2,3-c]pyridin]-1′(2′H)-yl)methyl)isoquinolin-4-yl)picolinate], for which the EC50 stood at 17 nM. For the compound `CNC1(C(=O)N2CCC3(CC2)C(=O)N(Cc2ncc4ccccc4c2-c2ccc(C(N)=O)nc2)c2cnccc23)CC1` [Example 108b, 5-(3-((1-(1-(Methylamino)cyclopropanecarbonyl)-2′-oxospiro[piperidine-4,3′-pyrrolo[2,3-c]pyridin]-1′(2′H)-yl)methyl)isoquinolin-4-yl)picolinamide], the EC50 was 1.2 nM. On to `CC1(n2c(=O)n(Cc3ncc4ccccc4c3-c3ccc(C4(N)COC4)nc3)c3cnccc32)CC1` [Example 2022], for which the EC50 came out at 19 nM. `NC(C(=O)N1CCC2(CC1)C(=O)N(Cc1ncc3ccccc3c1-c1cncs1)c1cnccc12)C(F)(F)F` (stereo not shown) [Example 2040]: the 50% effective concentration (EC50) is 1.9 nM. As to `O=C1N(Cc2ncc3ccccc3c2-c2cccnc2)c2cnccc2C12CCN(S(=O)(=O)CC(F)(F)F)CC2` [Example 139, 1′-((4-(pyridin-3-yl)isoquinolin-3-yl)methyl)-1-((2,2,2-trifluoroethyl)sulfonyl)spiro[piperidine-4,3′-pyrrolo[2,3-c]pyridin]-2′(1′H)-one], the EC50 came to 7.2 nM. Consider `N#Cc1ccc(-c2c(CN3c4ccccc4[C@]4(C[C@H](O)C4)C3=O)ncc3ccccc23)cn1` [Example 82], for which the EC50 was found to be 11 nM. On to `COC(=O)N1CC2(C1)C(=O)N(Cc1ncc3ccccc3c1CCCCO)c1ccccc12` [Example 28b, Methyl 1′-((4-(4-hydroxybutyl)isoquinolin-3-yl)methyl)-2′-oxospiro[azetidine-3,3′-indoline]-1-carboxylate], for which the EC50 is 6.8 nM. On the same count and under the same terms, then `CC1(n2c(=O)n(Cc3ncc4ccccc4c3-c3ccc(C#N)nc3)c3ccccc32)CC1` [Example 90b, 5-(3-((3-(1-methylcyclopropyl)-2-oxo-2,3-dihydro-1H-benzo[d]imidazol-1-yl)methyl)isoquinolin-4-yl)picolinonitrile], with 5.1 nM. In the case of `CNC1(C(=O)N2CC3(C2)C(=O)N(Cc2ncc4ccccc4c2-c2ccc(C#N)nc2)c2ccccc23)CC1` [Example 63, 5-(3-((1-(1-(Methylamino)cyclopropanecarbonyl)-2′-oxospiro[azetidine-3,3′-indolin]-1′-yl)methyl)isoquinolin-4-yl)picolinonitrile], the EC50 is 1.5 nM.

In the case of `NC1(C(=O)N2CCC3(CC2)C(=O)N(Cc2ncc4ccccc4c2-c2cccnc2)c2cnccc23)CC1` [Example 137], the EC50 is 5.4 nM.

Consider `NC1(C(=O)N2CCC3(CC2)C(=O)N(Cc2ncc4ccccc4c2-c2ccc(C(=O)O)nc2)c2cnccc23)CC1` [Example 50b, 5-(3-((1-(1-aminocyclopropanecarbonyl)-2′-oxospiro[piperidine-4,3′-pyrrolo[2,3-c]pyridin]-1′(2′H)-yl)methyl)isoquinolin-4-yl)picolinic acid], for which the EC50 stood at 4.3 nM. As for `CS(=O)(=O)Nc1ccc(-c2c(CN3C(=O)C4(CN(C(=O)C5(N)CC5)C4)c4ccccc43)ncc3ccccc23)cc1` [Example 114c, N-(4-(3-((1-(1-aminocyclopropanecarbonyl)-2′-oxospiro[azetidine-3,3′-indolin]-1′-yl)methyl)isoquinolin-4-yl)phenyl)methanesulfonamide], the EC50 was 5.5 nM. In the case of `CS(=O)(=O)N1CCC(n2c(=O)n(Cc3ncc4ccccc4c3CCCCO)c3cnccc32)CC1` [Example 18c, 3-((4-(4-hydroxybutyl)isoquinolin-3-yl)methyl)-1-(1-(methylsulfonyl)piperidin-4-yl)-1H-imidazo[4,5-c]pyridin-2(3H)-one], the EC50 stood at 3.4 nM.

The assay is the same for the next values; noted with them: human respiratory syncytial virus, HEp-2, 72 h, read-out: EC50 (nm).
Regarding `CN1CC2(C1)C(=O)N(Cc1ncc3ccccc3c1CCCCO)c1ccccc12` [Example 41, 1′-((4-(4-Hydroxybutyl)isoquinolin-3-yl)methyl)-1-methylspiro[azetidine-3,3′-indolin]-2′-one], the EC50 was found to be 660 nM. On the same count and under the same terms, to `COC(=O)N1CC2(C1)C(=O)N(Cc1ncc3ccccc3c1-c1ccc(C#N)cn1)c1ccccc12` [Example 101, Methyl 1′-((4-(5-cyanopyridin-2-yl)isoquinolin-3-yl)methy)-2′-oxospiro[azetidine-3,3′-indoline]-1-carboxylate] belongs 11 nM.
